Like-named read-outs stand apart in the source and are kept apart here.
Tests used:
[1] = test system: wild-type HCT116 colon cancer cells; assay: Anti-proliferative IC50 assay (SRB), wild-type HCT116; type: cell-based, human
Description: (§1) The cellular cytotoxicity of compounds of the invention resulting from AKR1C3-dependent metabolism of the compounds can readily be observed in anti-proliferative IC50 testing in isogenic cell lines that have been engineered to over-express human AKR1C3, relative to their wild-type counterparts that have been selected for their comparatively low levels of endogenous AKR1C3 expression (by Western blot analysis). The direct role of AKR1C3 in metabolism and cytotoxicity of the compounds is further supported for selected examples by repeat anti-proliferative experiments in the presence of a potent and selective small molecule inhibitor of AKR1C3, SN34037 (Flanagan et al., Bioorganic & Medicinal Chemistry (2014), 22(3), 967-977).
(§2) Four hundred cells were seeded in a volume of 100 μL in each well of a 96-well plate. The cells were left in a humidified incubator (37° C., 5% CO2) for 2 hours in order to enable attachment to the surface of the wells prior to compound addition. All compounds were prepared as stocks in DMSO and stored at −80° C. Frozen stocks of compounds were thawed immediately prior to addition to cells. Working solutions of each compound were made in α-MEM+5% FBS (v/v) at 3 times the required final concentration for the top well. The final concentration of DMSO in the α-MEM solution was ensured to not exceed 1% of the total volume. 50 μL of the working solution was added to the top wells (in duplicates) and gently mixed. The solubility of some compounds precluded the working solution in α-MEM to be 3 times the desired top well concentration. […] A 3-fold serial dilution was carried out along the plate starting from the top well. The first column of wells on the plate served as blanks (containing α-MEM+FBS) and the second column served as control wells (containing cells with no compound added). Following compound addition, the plates were incubated for 4 hours in a humidified incubator (37° C., 5% CO2).
(§3) Following the 4 hour compound exposure, the 96-well plates were washed three times by aspirating media with an Immuno Washer (Nunc) and each well replaced with 150 μL of α-MEM+5% (v/v) FBS+1% (v/v) P/S. The plates were left in a humidified incubator (37° C., 5% CO2) for 5 days to enable cell growth. The cells in 96-well plates were fixed 5 days after compound exposure by adding 50 μL of a 40% (w/v) trichloroacetic acid (TCA) solution so as to obtain a final TCA concentration of 10% in each well. The plates were left in the refrigerator (4° C.) for 1 hour and subsequently rinsed 3 times in tap water. Any excess water was left to drain and the cells were stained with 50 μL of 0.4% (w/v) sulforhodamine B (SRB). The plates with the SRB stain were left in the dark for 30 minutes. Excess stain was removed from the wells by rinsing the plates 4 times in water containing 1% (v/v) acetic acid. The stain was solubilised by adding 100 μL of 10 mM unbuffered Tris (pH 10.5) to each well and the plates were left in a shaker in a dark environment at room temperature for at least 1 hour. The absorbance values of the wells were determined by an ELx 808 Absorbance Microplate Reader (Bio-Tek Instruments, Winooski, Vt., USA), with the wavelength of the measurement filter set at 490 nm and a reference filter set at 450 nm. The absorbance of the reference filter was subtracted from the measurement filter to obtain a final absorbance of λ490-450 nm. The absorbance data was analysed and IC50 values determined by the KC4 microplate data analysis software (KC4™ V3.4, Bio-Tek).
(§4) Anti-proliferative IC50 assays were repeated as described above including the addition of 3 μM SN34037, a selective and potent small molecule inhibitor of AKR1C3.

[2] = test system: HCT116 colon cancer cells engineered to over-express AKR1C3; assay: Anti-proliferative IC50 assay (SRB), HCT116 over-expressing AKR1C3; type: cell-based, human; settings: for IC50 Ratio WT:AKR1C3: HCT116-WT vs HCT116-AKR1C3
Description: as §1, §2, §3, §4

[3] = test system: wild-type SNU398 hepatocellular carcinoma cells; assay: Anti-proliferative IC50 assay, wild-type SNU398; type: cell-based; settings: Homo sapiens
Method: as §2, §3, §4
(§5) Materials and methods used are as described for Example 9. […] This is a surprising finding and considerably greater than the approximately 77-fold, 270-fold and 400-fold increase in sensitivity observed for PR-104A, SN33540 and SN34454, respectively. In all cases, this increase in cytotoxicity resulting from expression of AKR1C3 can be substantially reversed by addition of an AKR1C3 inhibitor (SN34037), directly implicating metabolism of the prodrugs by AKR1C3 in the observed increase in cytotoxicity. As an important control, introduction of SN34037 had no anti-proliferative effects in wild-type SNU398 cells treated with compounds of the invention.

[4] = test system: SNU398 hepatocellular carcinoma cells engineered to over-express AKR1C3; assay: Anti-proliferative IC50 assay, SNU398 over-expressing AKR1C3; type: cell-based, human; settings: for IC50: Homo sapiens
Method: as §2, §3, §4, §5

[5] = test system: wild-type H460 lung cancer cells; assay: Anti-proliferative IC50 assay, wild-type H460; type: cell-based, human; settings: for IC50: Homo sapiens
Method: as §2, §3, §4
(§6) Materials and methods used are as described for Example 9.

[6] = test system: wild-type PLC/PRF/5 hepatocellular carcinoma cells; assay: Anti-proliferative IC50 assay, wild-type PLC/PRF/5; type: cell-based, human; settings: Homo sapiens, PLC-PRF-5
Method: as §2, §3, §4, §6

[7] = test system: wild-type HCT116 colon cancer cells; assay: Anti-proliferative IC50 under oxic and anoxic conditions; type: cell-based, human; settings: for IC50: Homo sapiens, HCT-116
Description: PR-104A was initially designed and optimised as a hypoxia-selective cytotoxin (Patterson et al, Clinical Cancer Research, 2007, 13, 3922-3932). In the context of an AKR1C3-activated prodrug, this route of activation is considered off-mechanism and may potentially be undesirable, leading to off-target toxicities in a subject. Preferred compounds of the invention have been determined to be substantially resistant to hypoxia-dependent activation and cytotoxicity in wild-type HCT116 colon cancer cells. HCT116 cells were treated with compounds of the invention under either oxic or anoxic conditions and then their degree of anti-proliferative activity determined.
Selected compounds were evaluated for cytotoxic potential (IC50) under anoxic conditions. The same procedures as described above for Examples 9-11 were carried out in a Bactron anoxic chamber (Sheldon Manufacturing Inc) with internal 37° C. incubators where palladium catalyst scrubbed gas (90% N2, 5% H2, 5% CO2) ensured severe anoxia (<0.001% O2) in the whole chamber. All materials required (including cells) were taken into the chamber through two cycles of vacuum and gassing with 100% N2, followed by a single cycle with 5% CO2 and 5% hydrogen in nitrogen. All experimental materials were placed in the anoxic chamber at least 3 days prior to the day required for the experiment in order to remove any traces of residual O2. The medium used for the 96-well plates in the anoxic chamber consisted of α-MEM+10% (v/v) FBS+1% (v/v) additives (1 M β-D-Glucose and 20 mM 2′-Deoxycytidine).

[8] = test system: AKR1C3 mixed MCLs; settings: Silva, MSc Thesis; cited from earlier work
[9] = target: T1, recombinant human AKR1C3 (Homo sapiens, UniProt P42330); assay: Kinetics assay: metabolism of prodrugs by recombinant human AKR1C3; type: biochemical; settings: NADPH, pH 7.4, 37° C.
T1 construct: His6 (hexahistidine) (C); made in house; host or cells: E. coli BL21(DE3)
T1 sequence (P42330 1-323): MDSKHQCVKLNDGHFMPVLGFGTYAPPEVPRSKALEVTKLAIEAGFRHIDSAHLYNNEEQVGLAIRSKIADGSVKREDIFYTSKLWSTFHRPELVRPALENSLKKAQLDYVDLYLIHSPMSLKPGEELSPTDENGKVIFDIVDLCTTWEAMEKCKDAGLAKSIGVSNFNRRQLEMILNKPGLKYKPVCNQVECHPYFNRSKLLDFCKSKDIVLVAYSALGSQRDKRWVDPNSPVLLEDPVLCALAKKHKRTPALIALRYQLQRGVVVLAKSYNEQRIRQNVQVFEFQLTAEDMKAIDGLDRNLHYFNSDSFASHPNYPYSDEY
Method: E. coli BL21(DE3) cells expressing the pET22b-AKR1C3 construct with a C-terminal hexahistidine (His6) tag and constitutive promoter was generated. Colonies of these transformed E. coli cells were grown in LB agar medium containing 100 μg/mL of ampicillin. A single colony was picked the following day and grown in 400 mL batches of bacterial medium containing ampicillin (100 μg/mL) at 37° C., with continuous shaking at 200 rpm overnight. Bacterial cultures were pelleted by centrifugation (4000×g, 15 minutes) and resuspended in lysis buffer (10 mL/400 mL culture). The cells were disrupted by sonication (Sonicator 3000, Misonix) and centrifuged at 14,000 rpm for 30 minutes (at 4° C.). The cleared lysate was filtered in successive filters containing pore sizes of 1.20 μm, 0.8 μm and 0.2 μm and loaded onto a nickel-agarose affinity chromatography column on an ÄKTA Purifier system. The column was washed with 20 mL of the lysis buffer and the His6-tagged AKR1C3 protein was eluted with lysis buffer supplemented with 500 mM imidazole. The protein was further purified by a liquid chromatography gel filtration column (Superdex 200 HR16/60) using lysis buffer (supplemented with 5% v/v glycerol) and 1 mM DTT (pH 7.0) at a flow rate of 0.3 mL/min. Protein was monitored by absorbance at 280 nm, and purity of the fractions (1 mL) was assessed by SDS-PAGE. Active fractions containing the purified protein were pooled and concentrated by centrifugation (3,000×g, 4° C.) on a Vivaspin concentrator (MWCO 10,000 cutoff; GE Healthcare). The protein containing solution was supplemented with glycerol (to a final concentration of 15%, v/v) and NADP^+ was added to a final concentration of 2 mM.
Kinetic parameters of compounds of the invention were determined in a 96-well plate format. The 100 mM potassium phosphate buffer used in this assay was made with the following reagents to a pH of 7.4: • 0.5 M K2HPO4— 8.2 mL • 0.5 M KH2PO4— 1.8 mL • BSApowder—25 mg • Milli Q water—40 mL
For the assay, 2 μL of varying substrate concentrations were incubated with 94 μL of the potassium phosphate buffer and 2 μL of 5 mM NADPH for 5 minutes in the pre-warmed (37° C.) plate chamber of a Molecular Devices SpectraMax M2 plate reader. Purified AKR1C3 enzyme (2 μL) was added to a final concentration of […] in each well using an Eppendorf electronic multi-channel pipette. Absorbance measurements were recorded immediately upon addition of enzyme over a period of 5 minutes at a wavelength of 400 nm. Absorbance changes for each compound concentration were plotted against time to obtain the rate of absorbance change over the 5 minute period. The rate of absorbance change was then plotted against the compound concentration and non-linear regression analysis and Michaelis-Menten curve fitting performed on GraphPadPrism (version 5.00 for Windows, GraphPad Software, San Diego Calif. USA) in order to determine kinetic parameters of compounds.

[10] = Homo sapiens, HCT-116, read-out: HCT116-WT IC50
[11] = Homo sapiens, HCT-116, read-out: HCT116-AKR1C3 IC50
[12] = SNU-398, read-out: SNU398-WT +AKR1C3 Inhibitor Anti-proliferative IC50
[13] = SNU-398, read-out: SNU398-WT Anti-proliferative IC50
[14] = SNU-398, read-out: SNU398-AKR1C3 +AKR1C3 Inhibitor Anti-proliferative IC50
[15] = SNU-398, read-out: SNU398-AKR1C3 Anti-proliferative IC50
[16] = NCI-H460, read-out: H460-WT +AKR1C3 Inhibitor Anti-proliferative IC50
[17] = NCI-H460, read-out: H460-WT Anti-proliferative IC50
[18] = read-out: PLC/PRF/5-WT Anti-proliferative IC50
[19] = with 3 μM SN34037, read-out: PLC/PRF/5-WT +AKR1C3 Inhibitor Anti-proliferative IC50

Row | SMILES | IC50 [1, 10] [µM] | IC50 Ratio WT:AKR1C3 [2] | IC50 [2, 11] [µM] | IC50 [3, 12] [µM] | IC50 [3, 13] [µM] | IC50 [4, 14] [µM] | IC50 [4, 15] [µM] | IC50 [5, 16] [µM] | IC50 [5, 17] [µM] | IC50 [6, 18] [µM] | IC50 [6, 19] [µM] | also measured
1 | CS(=O)(=O)O.CS(=O)(=O)OCCN(CCOS(C)(=O)=O)c1ccc([N+](=O)[O-])cc1S(=O)(=O)N1CCNCC1 |  |  |  |  |  |  |  |  |  |  |  | melting point: 147 to 149 °C
2 | CN1CCN(S(=O)(=O)c2cc([N+](=O)[O-])ccc2N(CCBr)CCBr)CC1 [Compound 563, N,N-bis(2-bromoethyl)-2-((4-methylpiperazin-1-yl)sulfonyl)-4-nitroaniline] | 7.34 | 816 | 0.009 | 5.87 | 6.93 | 4.19 | 0.015 | 3.09 | 0.019 | 4.2 | 21.5 | IC50 ([1]; read-out: HCT116-WT + AKR1C3 Inhibitor IC50, with 3 μM SN34037): 5.89 µM; more cytotoxic than SN34118 to AKR1C3-expressing HCT116 cells [2]: 43 fold; IC50 ([2]; read-out: HCT116-AKR1C3 + AKR1C3 Inhibitor IC50, with 3 μM SN34037): 3.26 µM; more cytotoxic in H460 cells than SN34118 [5]: 82 fold
3 | CN1CCN(C(=O)c2cc([N+](=O)[O-])cc([N+](=O)[O-])c2N(CCBr)CCOS(C)(=O)=O)CC1 [SN33540, reference compound] |  |  |  | 248 | 231 | 193 | 0.844 | 97.7 | 0.536 | 83.9 | 248 | increase in sensitivity when SNU398 cells express AKR1C3 ([4]; SNU398-WT vs SNU398-AKR1C3): ~270 fold; IC50 ([7]; anoxic (<0.001% O2), read-out: HCT116-WT Anti-proliferative IC50 Anoxic): 5.1 µM; IC50 ([7]; read-out: HCT116-WT Anti-proliferative IC50 Oxic): 127 µM; Hypoxic Cytotoxicity Ratio (HCR) ([7]; oxic vs anoxic IC50, HCT116-WT): 25; BEE reported in AKR1C3 mixed MCLs [8]: 60%
4 | N#Cc1cccc2c1CCN(C(=O)c1cc([N+](=O)[O-])cc([N+](=O)[O-])c1N(CCBr)CCBr)C2 [SN34951, reference compound] | > 150 | >38 | 3.97 |  |  |  |  |  |  |  |  | Km [9]: 8.5 µM; kcat [9]: 29.0 s⁻¹
